{"source": "PubChem BioAssay AID463199", "about": "(Broad Institute, 2010)", "note": "The source made the active and inactive calls.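 Rule for the calls: active = AC50, the dose giving half-maximal effect, exceeds a fixed cutoff for a compound that rescues yeast growth under heat; inactive = the rest, inconclusive results apart.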", "data": [{"tested_on": "S. cerevisiae Burl-1 ts mutant growth, BacTiter-Glo, 38.5C 24 h", "assay": "growth induction of Burl-1 ts yeast mutant, dose response, counter-screen for SUMOylation pathway inhibitor project, whole organism, S. cerevisiae, luminescence (AID 463199)", "values": [{"smiles": "COc1cc(/C=N/NC(=S)NCc2ccco2)cc(OC)c1OC", "AC50": "> 42 µM (inactive)"}, {"smiles": "N#CCCN(C(=O)COC(=O)c1ccc(S(=O)(=O)Nc2ccccc2)cc1)c1ccccc1", "AC50": "> 42 µM (inactive)"}, {"smiles": "CCNC(=S)Nc1ccc(C)c(S(=O)(=O)Nc2ccccc2OC)c1", "AC50": "> 42 µM (inactive)"}, {"smiles": "O=C(c1ccccc1)C(CN1CCCC1)c1ccccc1", "note": "(stereo unspecified)", "AC50": "> 42 µM (inactive)"}, {"smiles": "CN(C)C(=O)CCN1CCOCC1", "AC50": "> 42 µM (inactive)"}, {"smiles": "CCCCC(O)(c1ccc(F)cc1)C(CN1CCOCC1)c1ccc(Cl)cc1", "note": "(stereo unspecified)", "AC50": "> 21 µM (inactive)"}, {"smiles": "CS(=O)(=O)N(CC(=O)N1CCCCCC1)Cc1ccc(Cl)cc1", "AC50": "> 42 µM (inactive)"}, {"smiles": "COc1ccc(C(=O)N(CCc2ccccc2)Cc2ccccc2)c(OC)n1", "AC50": "> 42 µM (inactive)"}, {"smiles": "Cc1cccc(N/N=C/c2c(O)[nH]c(=S)[nH]c2=O)c1", "AC50": "> 42 µM (inactive)"}, {"smiles": "O=C(COC(=O)Cc1ccsc1)NC1CCCCCC1", "AC50": "> 42 µM (inactive)"}, {"smiles": "CN(C)c1oc(-c2ccccc2Cl)nc1S(=O)(=O)c1ccccc1", "AC50": "> 42 µM (inactive)"}, {"smiles": "CCN(CC)CCCNC(=O)C1c2ccccc2C(=O)N(CCOC)C1c1ccc(F)cc1", "note": "(stereo unspecified)", "AC50": "> 21 µM (inactive)"}, {"smiles": "Cc1ccc(/C=N/NC(=O)NC23CC4CC(CC(C4)C2)C3)o1", "AC50": "> 42 µM (inactive)"}, {"smiles": "COc1ccccc1NC(=O)Nc1ccc(Cl)c(S(=O)(=O)Nc2ccccc2OC)c1", "AC50": "> 42 µM (inactive)"}, {"smiles": "CC(=O)NCc1c(Cl)cccc1-n1cccc1", "AC50": "> 42 µM (inactive)"}, {"smiles": "Cc1ccc(-c2nc3c(=O)n(-c4ccccc4)c4c(c(=O)n(C)c(=O)n4C)c3o2)cc1", "AC50": "> 42 µM (inactive)"}, {"smiles": "CCN(CC)S(=O)(=O)c1ccc(NC(=O)C(C)N(c2ccccc2)S(C)(=O)=O)cc1", "note": "(stereo unspecified)", "AC50": "> 42 µM (inactive)"}, {"smiles": "Nc1ncnc2nc(SCC(=O)N3CCN(c4ccccc4)CC3)[nH]c12", "AC50": "> 42 µM (inactive)"}, {"smiles": "Cc1ccccc1-c1nnc(SCc2ccc(F)cc2)o1", "AC50": "> 42 µM (inactive)"}, {"smiles": "Cc1ccc(S(=O)(=O)N2[C@@H](c3ccccc3F)C(C(=O)O)=CC[C@H]2c2ccc3c(c2)OCO3)cc1", "AC50": "> 42 µM (inactive)"}, {"smiles": "COc1ccc(OC)c(NC(=O)CNC(=O)Cn2ccc3ccccc3c2=O)c1", "AC50": "> 42 µM (inactive)"}, {"smiles": "c1ccc2c(c1)[nH]c1c(N3CCN(C4CCCCC4)CC3)ncnc12", "AC50": "39.8 µM"}, {"smiles": "CN(C)C(CNC(=O)CNC(=O)c1ccc(Br)cc1)c1ccccc1", "note": "(stereo unspecified)", "AC50": "> 42 µM (inactive)"}, {"smiles": "O=C(CSc1nnnn1C1CC2CCC1C2)Nc1ccnc2ccccc12", "note": "(stereo unspecified)", "AC50": "> 42 µM (inactive)"}, {"smiles": "Cc1cc(/C=N/NC(=O)c2ccsc2)c(C)n1-c1cnccn1", "AC50": "> 42 µM (inactive)"}, {"smiles": "COc1cc(S(=O)(=O)NC2CCCC2)c(OC)cc1C", "AC50": "> 42 µM (inactive)"}, {"smiles": "O=C(COC(=O)c1cc([N+](=O)[O-])ccc1N1CCOCC1)Nc1cccc(F)c1", "AC50": "> 42 µM (inactive)"}, {"smiles": "COc1ccc(-c2noc(CSc3nc(-c4ccccc4)cc(=O)[nH]3)n2)cc1OC", "AC50": "> 42 µM (inactive)"}, {"smiles": "CCC(CC)C(=O)Nc1ccc(S(=O)(=O)Nc2nccs2)cc1", "AC50": "26 µM"}, {"smiles": "CCCc1nc(NCc2ccccc2)c(C#N)c2c1CCCC2", "AC50": "> 42 µM (inactive)"}, {"smiles": "O=S1(=O)C=C(Sc2nnc(-c3ccccc3)o2)c2ccccc21", "AC50": "8.23 µM"}, {"smiles": "Cc1nc(-c2cccc(S(=O)(=O)N3CCOCC3)c2)cs1", "AC50": "> 42 µM (inactive)"}, {"smiles": "O=CNCCCc1nc2ccccc2n1CCc1ccccc1", "AC50": "> 42 µM (inactive)"}, {"smiles": "C=CCSC1=C(C#N)C(c2ccc(C(C)C)cc2)CC(=O)N1", "note": "(stereo unspecified)", "AC50": "> 42 µM (inactive)"}, {"smiles": "O=c1c2ccccc2ncn1Cc1ccc2c(c1)OCO2", "AC50": "> 42 µM (inactive)"}, {"smiles": "O=C(CCCNC(=O)/C(=C/c1ccccc1F)NC(=O)c1ccccc1)OCc1ccccc1", "AC50": "> 42 µM (inactive)"}, {"smiles": "CCOc1ccc(C(=O)Nc2ccc(CN3CCOCC3)cc2)cc1Br", "AC50": "41.9 µM"}, {"smiles": "CC1CCN(CCCCOc2ccc(F)cc2)CC1", "AC50": "> 42 µM (inactive)"}, {"smiles": "O=C(CN1CCN(c2nc(-c3ccccc3)cs2)CC1)NNC(=O)c1ccc(Br)cc1", "AC50": "> 42 µM (inactive)"}, {"smiles": "O=C(COc1ccccc1Cl)c1ccc[nH]1", "AC50": "> 42 µM (inactive)"}, {"smiles": "CCCCC(=O)Nc1cc(OC)c(NC(=O)C2CCCCC2)cc1OC", "AC50": "> 42 µM (inactive)"}, {"smiles": "O=[N+]([O-])c1c(NCCCO)cc(Sc2nc3ccccc3s2)c2nonc12", "AC50": "> 42 µM (inactive)"}, {"smiles": "O=C(NCc1cccnc1)Nc1ccccc1", "AC50": "> 42 µM (inactive)"}, {"smiles": "Cc1ccc(S(=O)(=O)n2cccc2C)cc1", "AC50": "> 42 µM (inactive)"}, {"smiles": "c1ccc2cc(C3CCCCC3)ncc2c1", "AC50": "> 42 µM (inactive)"}, {"smiles": "CCOc1ccc(NS(=O)(=O)c2ccc(C(=O)NCc3cccnc3)cc2)cc1", "AC50": "> 42 µM (inactive)"}, {"smiles": "CCc1ccc(-c2nc(SCC(=O)N3CCOCC3)n[nH]2)cc1", "AC50": "> 42 µM (inactive)"}, {"smiles": "COc1ccc(S(=O)(=O)Nc2ccc(NC(C)=O)cc2)cc1OC", "AC50": "> 42 µM (inactive)"}, {"smiles": "CCN1CCN(CC(=O)Nc2cccc(C)c2C)C(=O)C1=O", "AC50": "> 42 µM (inactive)"}, {"smiles": "CC(C)(C)CC(=O)Nc1cc(S(=O)(=O)N2CCOCC2)ccc1N1CCCC1", "AC50": "> 42 µM (inactive)"}, {"smiles": "O=C(CSc1nnc2ccccn12)NNC(=O)c1ccc(Cl)cc1", "AC50": "> 42 µM (inactive)"}]}]}
